From the Kinase Knowledgebase extract (Sharma et al. 2016)

Each compound was assayed against CDK2 (human) (UniProt P24941) (assay: Enzyme Assay).

| IC50 [µM] | Compound |
| --- | --- |
| < 0.5 | CC(C)c1n[nH]cc1-c1ccnc(NC2CCc3cc(Cl)ccc32)n1 (stereo not drawn) |
| < 1 | CC(C)c1n[nH]cc1-c1ccnc(NC2CCNCC2)n1 |
| < 5 | CCCNc1cc(-c2cn[nH]c2C(C)C)ccn1 |
| < 5 | CC(C)c1n[nH]cc1-c1ccnc(NCCCN(C)c2ccccc2)n1 |
| < 15 | Cc1n[nH]cc1-c1ccnc(NCc2ccccc2)n1 |
| < 15 | CC(C)c1[nH]ncc1-c1ccnc(NC2CCN(Cc3ccccc3)CC2)c1 |
| < 0.5 | c1cc(-c2cn[nH]c2C2CCCC2)cc(NC2CCC2)n1 |
| < 0.5 | CC(C)c1n[nH]cc1-c1ccnc(NCc2ccccc2F)n1 |
| < 10 | Cc1n[nH]cc1-c1ccnc(NC2CC2)n1 |
| < 10 | Cc1n[nH]cc1-c1ccnc(NCc2cccnc2)n1 |
| < 10 | Cc1ccccc1CNc1nccc(-c2c[nH]nc2C)n1 |
| < 10 | Cc1n[nH]cc1-c1ccnc(NCC2CC2)n1 |
| < 1 | CC(C)c1[nH]ncc1-c1ccnc(NCCCn2ccnc2)c1 |
| < 0.5 | CC(C)c1n[nH]cc1-c1ccnc(NC2CCN(c3ccccc3)CC2)n1 |
| < 15 | Cc1n[nH]cc1-c1ccnc(NCC2CCCCCC2)n1 |
| < 10 | Cc1n[nH]cc1-c1ccnc(NCCc2ccccc2)n1 |
| < 5 | c1cncc(CCNc2cc(-c3cn[nH]c3C3CCCC3)ccn2)c1 |
| < 1 | CC(C)c1n[nH]cc1-c1ccnc(NC2CCN(C(=O)OC(C)(C)C)CC2)n1 |
